The target in data set [1] is PgAgD (agmatine deiminase from P. gingivalis) (Porphyromonas gingivalis, UniProt Q7MXM8). The data set is described as follows: IC50 determination, agmatine deiminase discontinuous ureido. The format is biochemical.
Data set [2] deals with HpAgD (agmatine deiminase from Helicobacter pylori). The following applies: read-out: IC50 HpAgD; previously reported; cited from earlier work.
In data set [3] the test system is Cys324. The data set is described as follows: chemical modification. The following applies: 37 °C, 50 mM HEPES, free enzyme (kinact/KI).
In data set [4] the target is SmAgD (agmatine deiminase from S. mutans) (Streptococcus mutans serotype c, UniProt Q8DW17). The data set is described as follows: IC50 determination, agmatine deiminase discontinuous ureido. It is filed as biochemical.
Sequence of SmAgD (agmatine deiminase from S. mutans) (Q8DW17 whole entry): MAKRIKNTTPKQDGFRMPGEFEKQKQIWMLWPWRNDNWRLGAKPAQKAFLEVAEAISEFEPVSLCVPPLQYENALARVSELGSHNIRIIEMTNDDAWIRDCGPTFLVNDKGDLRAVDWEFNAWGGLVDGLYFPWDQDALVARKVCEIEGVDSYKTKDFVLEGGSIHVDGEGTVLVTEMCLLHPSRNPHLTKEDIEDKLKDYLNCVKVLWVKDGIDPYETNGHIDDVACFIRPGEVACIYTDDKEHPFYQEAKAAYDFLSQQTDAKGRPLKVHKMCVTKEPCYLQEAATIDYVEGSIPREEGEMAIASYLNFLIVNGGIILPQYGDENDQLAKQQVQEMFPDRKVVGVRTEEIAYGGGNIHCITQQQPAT

Take `N=C(CCl)NCCCCN` [ABCA, N-(4-aminobutyl)-2-chloro-ethanimidamide]: the 50% inhibitory concentration (IC50) in data set [1] is 15 ± 3 µM; in data set [2], 0.87 ± 0.03 µM.
For the compound “Agmatine deiminase (HpAgD) (Helicobacter pylori)”, the pKa in data set [3] (2-chloroacetamidine 0-60 mM) came to 9.8 ± 0.1; in data set [3] (iodoacetamide 0-20 mM) it was 9.2 ± 0.3.
Turning to `N=C(CF)NCCCCN` [ABFA, N-(4-aminobutyl)-2-fluoro-ethanimidamide], the IC50 in data set [1] was 91 ± 25 µM; in data set [2], 6.8 ± 0.26 µM; in data set [4] it was 0.27 ± 0.1 µM.

The values are drawn from PMC2964429 (Biochemistry, 2010).
